Test results: US20160084855A1, “Compositions and Methods for Modulation and Detection of Immune and Inflammatory Responses” (UNIVERSITY OF CONNECTICUT, priority 2013, published 2016)
Values joined by “and” are separate entries in the source; they are usually repeats but may differ in a detail not shown here. Equal entries are not always repeated.

Experiments:
[1] = test system: spinal cord CD4+ and Foxp3+ T cells; test: Flow cytometry of spinal cord mononuclear cells of mice with EAE; type: in vivo, mouse
Excerpt: Spinal cord mononuclear cells were derived as previously described in Korn et al. “Myelin-specific regulatory T cells accumulate in the CNS but fail to control autoimmune inflammation” Nat. Med. 13:423-431 (2007) and stained for CD4 (FITC α-CD4 (GK1.5) BD Pharmingen) and Foxp3 (APC α-FoxP3 (FJK-16s; E-Bioscience), or stimulated in culture for 4 hrs with phorbol myristyl acetate and ionomycin prior to staining for Thy1.2 (PE-Cy7 anti-CD 90.2; E-Biosciences) and intracellular IFNγ (APC αIFNγ; BD Pharmingen) and IL-17 (Alexa Fluor 488 α-IL-17A; BD Pharmingen).
To characterize mechanisms by which PE DHC may enhance autoimmune disease in vivo, the experimental studies tested whether the PE DHC-mediated enhancement of EAE was associated with alterations in T cell populations at a site of disease. WT mice were immunized with the usual EAE-inducing protocol and treated on Day 0 with EtOH or PE DHC (250 ng i.p.). Within 5 days after onset of EAE, mice were sacrificed and exsanguinated, their spinal cords were removed, and the mononuclear cells were derived from the spinal cords. These cells were analyzed directly for CD4 and Foxp3 expression by flow cytometry or were stimulated with PMA and ionomycin for 4 hours and then, gating on Thy1.2+ cells, analyzed for intra-cellular interferon gamma (IFNγ) and IL-17 by flow cytometry. […] However, the percentage of CD4+ T cells within the total mononuclear cell populations derived from the spinal cords of PE DHC-treated mice was, on average, greater than the percentage in EtOH-treated mice (as illustrated in Table 2). […] The mean percentage of spinal cord cells that were CD4+ was 41% in EtOH-treated mice and, on average, 6.7% of these were Foxp3+. In contrast, the mean percentage of spinal cord cells that were CD4+ T cells was 52% in PE DHC-treated mice and, on average, 4.3% of these were Foxp3+. It has been reported in Korn et al. “Myelin-specific regulatory T cells accumulate in the CNS but fail to control autoimmune inflammation” Nat. Med. 13:423-431 (2007) that the percentage of spinal cord CD4+ Foxp3+ T cells increased as the disease progressed. […] Based on this observation, it was unlikely that the decrease in the percentage of Foxp3+ in PE-DHC-treated mice was related to differences in disease duration.

bone marrow DCs (BMDCs) = test: Stimulation of bone marrow dendritic cells, IL-6 ELISA and surface activation markers; type: cell-based, mouse; conditions: for IL-6 secretion: plate-bound LPS 1 μg, MMP 10 μg, PE DHC 2.5 μg, 18 hrs
Description: Bone marrow cells from C57BL/6 and TLR2^−/− mice were cultured at 2×10^5 cells/ml in RPMI containing 10% FCS, 2-ME, and 20 ng/ml recombinant murine GM-CSF for 9 days. Bone marrow DCs (BMDCs) were harvested at Day 9 and were greater than 80% CD11c+. LPS (1 μg), MMP (10 μg) (a bacterial lipoprotein and known TLR-2 ligand (Bachem H-9460), PE DHC (2.5 μg) or 70% EtOH, all in 20 ul volumes, were allowed to dry in the wells of a 24-well plate overnight prior to the addition of BMDCs. BMDCs were cultured in the ligand-bound 24-well plates at 1×10^6 cells/ml in RPMI containing GM-CSF. After 18 hrs, culture supernatants were harvested and tested for IL-6 via ELISA.
The effects of PE DHC on antigen presenting cell (APC) activation in vitro were examined Dendritic cells (BMDCs) (>85% CD11c+) were derived from the bone marrow of WT or TLR2^−/− mice and cultured either alone or with EtOH, LPS, MMP (a TLR2 ligand), or PE DHC. After 18 hrs supernatants were assayed for IL-6. […] BMDCs were also assayed for expression of the surface activation markers B7.2 and MHC class II.

[2] = Recovery of 3-OH isoC17:0 fatty acid from brains of mice with EAE (GC-MS); type: in vivo, mouse; conditions: mice that received PE DHC and had a disease score greater than 3.0, versus PBS or EtOH controls
Description: Mice treated with PBS, EtOH or with 25 ng, 250 ng, or 2.5 μg PE DHC were sacrificed after day 20 post-EAE immunization. The brains were removed and extracted for phospholipids according to the method of Bligh and Dyer as previously described in Nichols “Distribution of 3-hydroxy iC17:0 in subgingival plaque and gingival tissue samples: Relationship to adult periodontitis” Infect. Immun. 62:3753-3760 (1994). Lipid extracts were dissolved in hexane isopropanol:water (6:8:0.75, v/v/v/) and three 0.5 mg aliquots were dispensed into glass tubes supplemented with 30 ng of isobranched C20:0. […] Lipids were treated to form pentofluorobenzyl ester, trimethylsilyl ether derivatives and analyzed by negative ion chemical ionization GC-MS, as described in Nichols (1994). Fatty acid recovery was quantified by selected ion monitoring for characteristic fatty acid negative ions. The data were expressed as picograms of 3-OH isobranched (iso)C17:0 per 0.5 mg of total brain lipid extracted.
The cumulative disease index (CDI) was obtained by summing the daily average disease scores through Day 20. A mean of these daily disease scores (Mean Daily Disease) (+/−SEM) was calculated based on the 20 days of observation. […] Bacterial fatty acid levels in brain lipid extracts for each treatment group were evaluated using least squares linear regression analysis that included calculation of correlation coefficients. […]

phosphoethanolamine dihydroceramide [PE DHC]
Total number of mononuclear cells obtained from the spinal cords, versus EtOH ([1]; WT mice, PE DHC 250 ng i.p.): no significant difference
Percentages of spinal cord CD4+ T cells staining for intra-cellular IFNγ or IL-17, versus EtOH ([1]; WT mice, PE DHC 250 ng i.p., PMA and ionomycin 4 hours): not significantly different
DISEASE GRADE ([1]; individual WT mice at sacrifice, PE DHC 250 ng i.p. Day 0): 3.3 (2×) and 3.5 and 2.9 (2×) and 3.0
% CD4+ in spinal cord ([1]; individual WT mice, PE DHC 250 ng i.p. Day 0, 1-5 days after onset of EAE, of total mononuclear cells): 72.00% and 38.00% and 68.86% and 49.54% and 40.83% and 46.50%
% Foxp3+ in spinal cord ([1]; individual WT mice, PE DHC 250 ng i.p. Day 0, after gating on CD4+ T cells): 4.53% and 7.52% and 2.75% and 3.45% and 3.21% and 4.27%
IL-6 secretion (bone marrow DCs (BMDCs); TLR2−/− BMDCs): did not result in IL-6 secretion
IL-6 secretion (bone marrow DCs (BMDCs); WT BMDCs): levels of IL-6 secretion that were almost equivalent to that seen with LPS
Expression of surface activation markers B7.2 and MHC class II (bone marrow DCs (BMDCs); WT and TLR2−/− BMDCs): increased MHC II and B7.2 expression on WT but not TLR2^−/− BMDCs
Brain level of 3-OH isoC17:0 fatty acid [2]: higher levels of 3-OH isoC17:0 fatty acid
